According to ChEMBL document CHEMBL2440076, “New triarylpyrazoles as broad-spectrum anticancer agents: design, synthesis, and biological evaluation” (Eur J Med Chem, 2013):

What was measured:
Format in all cases: functional
IGROV-1 = assay: Growth inhibition of human IGROV1 cells assessed as cell growth at 3X10'-5 M after 48 hrs by sulforhodamine B assay; conditions: IGROV-1, 48 h, read-out: Activity
UACC-257 = assay: Growth inhibition of human UACC257 cells assessed as cell growth at 3X10'-9 M after 48 hrs by sulforhodamine B assay; conditions: UACC-257, 48 h, read-out: Activity
HL-60(TB) = assay: Growth inhibition of human HL-60(TB) cells assessed as cell growth at 3X10'-9 M after 48 hrs by sulforhodamine B assay; conditions: HL-60, 48 h, read-out: Activity
PC-3 [1] = assay: Growth inhibition of human PC3 cells assessed as cell growth at 3X10'-8 M after 48 hrs by sulforhodamine B assay; conditions: PC-3, 48 h, read-out: Activity
[2] = Growth inhibition of human Hs 578T cells assessed as cell growth at 3X10'-8 M after 48 hrs by sulforhodamine B assay; conditions: read-out: Activity
ACHN = assay: Growth inhibition of human ACHN cells assessed as cell growth at 3X10'-7 M after 48 hrs by sulforhodamine B assay; conditions: read-out: Activity
A498 [3] = assay: Growth inhibition of human A498 cells assessed as cell growth at 3X10'-7 M after 48 hrs by sulforhodamine B assay; conditions: A498, 48 h, read-out: Activity
SNB-19 = assay: Growth inhibition of human SNB19 cells assessed as cell growth at 3X10'-5 M after 48 hrs by sulforhodamine B assay; conditions: SNB-19, 48 h, read-out: Activity
NCI-H460 = assay: Growth inhibition of human NCI-H460 cells assessed as cell growth at 3X10'-8 M after 48 hrs by sulforhodamine B assay; conditions: NCI-H460, 48 h, read-out: Activity
PC-3 [4] = assay: Growth inhibition of human PC3 cells assessed as cell growth at 3X10'-7 M after 48 hrs by sulforhodamine B assay; conditions: PC-3, 48 h, read-out: Activity
NCI-H322M = assay: Growth inhibition of human NCI-H322M cells assessed as cell growth at 3X10'-7 M after 48 hrs by sulforhodamine B assay; conditions: read-out: Activity
M14 = assay: Growth inhibition of human M14 cells assessed as cell growth at 3X10'-6 M after 48 hrs by sulforhodamine B assay; conditions: M14, 48 h, read-out: Activity
UACC-62 [5] = assay: Growth inhibition of human UACC62 cells assessed as cell growth at 3X10'-8 M after 48 hrs by sulforhodamine B assay; conditions: UACC-62, 48 h, read-out: Activity
LOX IMVI = assay: Growth inhibition of human LOXIMVI cells assessed as cell growth at 3X10'-9 M after 48 hrs by sulforhodamine B assay; conditions: read-out: Activity
SK-MEL-28 [6] = assay: Growth inhibition of human SK-MEL-28 cells assessed as cell growth at 3X10'-7 M after 48 hrs by sulforhodamine B assay; conditions: SK-MEL-28, 48 h, read-out: Activity
U-251 = assay: Growth inhibition of human U251 cells assessed as cell growth at 3X10'-6 M after 48 hrs by sulforhodamine B assay; conditions: U-251, 48 h, read-out: Activity
OVCAR-4 = assay: Growth inhibition of human OVCAR4 cells assessed as cell growth at 3X10'-8 M after 48 hrs by sulforhodamine B assay; conditions: OVCAR-4, 48 h, read-out: Activity
A498 [7] = assay: Growth inhibition of human A498 cells assessed as cell growth at 3X10'-5 M after 48 hrs by sulforhodamine B assay; conditions: A498, 48 h, read-out: Activity
HOP-62 = assay: Growth inhibition of human HOP62 cells assessed as cell growth at 3X10'-5 M after 48 hrs by sulforhodamine B assay; conditions: HOP-62, 48 h, read-out: Activity
SK-OV-3 [8] = assay: Growth inhibition of human SKOV3 cells assessed as cell growth at 3X10'-9 M after 48 hrs by sulforhodamine B assay; conditions: SK-OV-3, 48 h, read-out: Activity
MDA-MB-231 = assay: Growth inhibition of human MDA-MB-231 cells assessed as cell growth at 3X10'-6 M after 48 hrs by sulforhodamine B assay; conditions: MDA-MB-231, 48 h, read-out: Activity
SK-MEL-28 [9] = assay: Growth inhibition of human SK-MEL-28 cells assessed as cell growth at 3X10'-5 M after 48 hrs by sulforhodamine B assay; conditions: SK-MEL-28, 48 h, read-out: Activity
[10] = Growth inhibition of human NCI-ADR-RES cells assessed as cell growth at 3X10'-6 M after 48 hrs by sulforhodamine B assay; conditions: read-out: Activity
CCRF-CEM [11] = assay: Growth inhibition of human CCRF-CEM cells assessed as cell growth at 3X10'-6 M after 48 hrs by sulforhodamine B assay; conditions: read-out: Activity
K562 = assay: Growth inhibition of human K562 cells assessed as cell growth at 3X10'-8 M after 48 hrs by sulforhodamine B assay; conditions: K562, 48 h, read-out: Activity
SK-OV-3 [12] = assay: Growth inhibition of human SKOV3 cells assessed as cell growth at 3X10'-6 M after 48 hrs by sulforhodamine B assay; conditions: SK-OV-3, 48 h, read-out: Activity
SW-620 = assay: Growth inhibition of human SW620 cells assessed as cell growth at 3X10'-9 M after 48 hrs by sulforhodamine B assay; conditions: SW-620, 48 h, read-out: Activity
CCRF-CEM [13] = assay: Growth inhibition of human CCRF-CEM cells assessed as cell growth at 3X10'-5 M after 48 hrs by sulforhodamine B assay; conditions: read-out: Activity
RXF 393 = assay: Growth inhibition of human RXF393 cells assessed as cell growth at 3X10'-9 M after 48 hrs by sulforhodamine B assay; conditions: RXF 393, 48 h, read-out: Activity
CAKI-1 = assay: Growth inhibition of human CAKI-1 cells assessed as cell growth at 3X10'-9 M after 48 hrs by sulforhodamine B assay; conditions: CAKI-1, 48 h, read-out: Activity
SNB-75 [14] = assay: Growth inhibition of human SNB75 cells assessed as cell growth at 3X10'-9 M after 48 hrs by sulforhodamine B assay; conditions: SNB-75, 48 h, read-out: Activity
NCI-H23 [15] = assay: Growth inhibition of human NCI-H23 cells assessed as cell growth at 3X10'-9 M after 48 hrs by sulforhodamine B assay; conditions: NCI-H23, 48 h, read-out: Activity
UACC-62 [16] = assay: Growth inhibition of human UACC62 cells assessed as cell growth at 3X10'-7 M after 48 hrs by sulforhodamine B assay; conditions: UACC-62, 48 h, read-out: Activity
TK-10 = assay: Growth inhibition of human TK10 cells assessed as cell growth at 3X10'-5 M after 48 hrs by sulforhodamine B assay; conditions: TK-10, 48 h, read-out: Activity
SF-295 = assay: Growth inhibition of human SF295 cells assessed as cell growth at 3X10'-7 M after 48 hrs by sulforhodamine B assay; conditions: SF-295, 48 h, read-out: Activity
NCI-H23 [17] = assay: Growth inhibition of human NCI-H23 cells assessed as cell growth at 5X10'-6 M after 48 hrs by sulforhodamine B assay; conditions: NCI-H23, 48 h, read-out: Activity
SNB-75 [18] = assay: Growth inhibition of human SNB75 cells assessed as cell growth at 5X10'-6 M after 48 hrs by sulforhodamine B assay; conditions: SNB-75, 48 h, read-out: Activity

SMILES | growth at 30 µM (IGROV-1) | growth at 0.003 µM (UACC-257) | growth at 0.003 µM (HL-60(TB)) | growth at 0.03 µM (PC-3 [1]) | growth at 0.03 µM [2] | growth at 0.3 µM (ACHN) | growth at 0.3 µM (A498 [3]) | growth at 30 µM (SNB-19) | growth at 0.03 µM (NCI-H460) | growth at 0.3 µM (PC-3 [4]) | growth at 0.3 µM (NCI-H322M) | growth at 3 µM (M14) | growth at 0.03 µM (UACC-62 [5]) | growth at 0.003 µM (LOX IMVI) | growth at 0.3 µM (SK-MEL-28 [6]) | growth at 3 µM (U-251) | growth at 0.03 µM (OVCAR-4) | growth at 30 µM (A498 [7]) | growth at 30 µM (HOP-62) | growth at 0.003 µM (SK-OV-3 [8]) | other results
O=C(Nc1cccc(-n2cc(-c3ccncc3)c(-c3ccc(Cl)c(O)c3)n2)c1)Nc1ccc(Cl)c(Cl)c1 | 5% | 95% | 90% | 98% | 71% | 96% | 94% | 18% | 105% | 81% | 113% | 14% | 102% | 96% | 97% | 25% | 102% | -26% | -13% | 96% | growth at 3 µM (MDA-MB-231): 15%; growth at 30 µM (SK-MEL-28 [9]): -27%; growth at 3 µM [10]: 46%; growth at 3 µM (CCRF-CEM [11]): 10%; growth at 0.03 µM (K562): 102%; growth at 3 µM (SK-OV-3 [12]): 13%; growth at 0.003 µM (SW-620): 100%; growth at 30 µM (CCRF-CEM [13]): 5%; growth at 0.003 µM (RXF 393): 96%; growth at 0.003 µM (CAKI-1): 93%; growth at 0.003 µM (SNB-75 [14]): 88%; growth at 0.003 µM (NCI-H23 [15]): 90%; growth at 0.3 µM (UACC-62 [16]): 91%
O=C(Nc1cccc(-n2cc(-c3ccncc3)c(-c3ccc(Cl)c(O)c3)n2)c1)Nc1cccc(C(F)(F)F)c1 | 3% | 96% | 99% | 96% | 91% | 94% | 80% | 20% | 101% | 82% | 98% | 21% | 96% | 97% | 101% | 29% | 107% | 15% | 9% | 98% | growth at 30 µM (TK-10): 7%; growth at 3 µM (MDA-MB-231): 52%; growth at 30 µM (SK-MEL-28 [9]): 3%; growth at 3 µM [10]: 39%; growth at 3 µM (CCRF-CEM [11]): 25%; growth at 0.03 µM (K562): 92%; growth at 3 µM (SK-OV-3 [12]): 58%; growth at 0.003 µM (SW-620): 98%; growth at 30 µM (CCRF-CEM [13]): 7%; growth at 0.003 µM (RXF 393): 96%; growth at 0.003 µM (CAKI-1): 98%; growth at 0.3 µM (SF-295): 88%; growth at 0.003 µM (SNB-75 [14]): 91%; growth at 0.003 µM (NCI-H23 [15]): 94%; growth at 0.3 µM (UACC-62 [16]): 92%
O=C(Nc1cccc(-n2cc(-c3ccncc3)c(-c3ccc(Cl)c(O)c3)n2)c1)Nc1ccc(Cl)c(C(F)(F)F)c1 | -47% | 97% | 116% | 89% | 88% | 84% | 95% | -42% | 100% | 73% | 95% | -7% | 95% | 100% | 95% | -61% | 95% | -49% | -17% | 102% | growth at 30 µM (TK-10): -19%; growth at 3 µM (MDA-MB-231): -38%; growth at 30 µM (SK-MEL-28 [9]): -87%; growth at 3 µM [10]: -7%; growth at 3 µM (CCRF-CEM [11]): -7%; growth at 0.03 µM (K562): 105%; growth at 3 µM (SK-OV-3 [12]): 22%; growth at 0.003 µM (SW-620): 100%; growth at 30 µM (CCRF-CEM [13]): -14%; growth at 0.003 µM (RXF 393): 101%; growth at 0.003 µM (CAKI-1): 89%; growth at 0.3 µM (SF-295): 90%; growth at 0.003 µM (SNB-75 [14]): 93%; growth at 0.003 µM (NCI-H23 [15]): 97%; growth at 0.3 µM (UACC-62 [16]): 89%
O=C(Nc1cccc(-n2cc(-c3ccncc3)c(-c3ccc(Cl)c(O)c3)n2)c1)Nc1cc(C(F)(F)F)cc(C(F)(F)F)c1 | – | – | – | – | – | – | – | – | – | – | – | – | – | – | – | – | – | – | – | – | growth at 5 µM (NCI-H23 [17]): -18%; growth at 5 µM (SNB-75 [18]): -46%
O=C(Nc1cccc(-n2cc(-c3ccncc3)c(-c3ccc(Cl)c(O)c3)n2)c1)c1ccc(N2CCOCC2)c(C(F)(F)F)c1 | – | – | – | – | – | – | – | – | – | – | – | – | – | – | – | – | – | – | – | – | growth at 5 µM (NCI-H23 [17]): 46%; growth at 5 µM (SNB-75 [18]): 20%
